# Values quoted from earlier work in patent US20260263382A1, “TRANSDERMAL PATCH COMPRISING RASAGILINE MESYLATE AND PREPARATION METHOD THEREFOR” (priority 2023, published 2026).
# Structures can show the parent of a compound that is named as a salt. Where two headings read alike, the source gives them in different places.
# Assays:
# [1] = carried in polyacrylate or silicone pressure-sensitive adhesives or polyvinyl alcohol, free base under weakly alkaline conditions
# [2] = oral preparations
# [3] = oral administration at 20 mg/d for 2 weeks
Structure (SMILES),Main drug content ([1]; listed as rasagiline free base),Bioavailability [2] [%],Adverse reaction [3],Main drug content [1]
C#CCN[C@@H]1CCc2ccccc21 [Rasagiline],"declines rapidly, even with complete degradation",36,no serious adverse reaction,–
C#CCN[C@@H]1CCc2ccccc21 [rasagiline mesylate],–,–,–,no change
